Source: US10602758B2, “Methods and compositions for improved taste quality” (Almendra Pte. Ltd, priority 2018, dated 2020)
Peptide text beside a SMILES is read from it.

Experiments:
human taste testers [1] = experiment: Sensory flavor profile analysis, Example 3.1: KCl, MgCl2 or CaCl2 individually at <12 mM with REBA in Citric Acid Buffer (Table 7); type: in vivo; details: used individually at <12 mM
Description: (§1) Representative formulations within the scope of the disclosed formulations were prepared and subjected to sensory testing by the methods described above in the section entitled Testing Methodology, where formulations are rated on a 0-15 scales for the Taste Attributes: Sweetness Intensity (SI), Saltiness Intensity (SaI), Sourness Intensity (SoI), Bitterness Intensity (BI), Astringency Intensity (AI), Body/Mouthfeel Intensity (B/MF) and Sweetness Linger (SL). And, in addition, formulations are rated for the additional Taste Attributes of Sweetness Appearance Time (AT) and Sweetness Desensitization (SD). AT was rated by the verbal descriptors Rapid (R), Delay (D) or SD (Significant Delay) and SD was rated by the verbal descriptors None (N), Slight (S) or Medium (M). In sensory test sessions, the number of samples evaluated was limited to 6. In the initial phase of formulation screening, testing was carried out in triplicate with a single subject extensively experienced in the technique of flavor profile analysis. Following formulation screening, testing on promising formulations was carried out with a trained panel as described above. […]
This study assessed the effect of K^+, Mg^2+, and Ca^2+ (from KCl, MgCl2, and CaCl2 salts) used individually in a disclosed Taste Modulator Composition on the Appearance Time (AT), Sweetness Linger (SL), Body/Mouthfeel (B/MF) and Sweetness Desensitization (SD) of REBA in Citric Acid Buffer at moderate concentrations (i.e., <12 mM).

human taste testers [2] = experiment: Sensory flavor profile analysis, Example 3.3: KCl, MgCl2 or CaCl2 individually at 30 mM with REBA in Citric Acid Buffer (Table 9); type: in vivo; details: used individually at 30 mM
Description: as §1
This study assessed the effect of K^+, Mg^2+, and Ca^2+ (from KCl, MgCl2, and CaCl2 salts) used individually at 30 mM in a disclosed Taste Modulator Composition on the Appearance Time (AT), Sweetness Linger (SL), Body/Mouthfeel (B/MF) and Sweetness Desensitization (SD) of REBA in Citric Acid Buffer.

human taste testers [3] = experiment: Sensory flavor profile analysis, Example 3.2: KCl, MgCl2 or CaCl2 individually at 20 mM with REBA in Citric Acid Buffer (Table 8); type: in vivo; details: used individually at 20 mM
Description: as §1
This study assessed the effect of K^+, Mg^2+, and Ca^2+ (from KCl, MgCl2, and CaCl2 salts) used individually at 20 mM in a disclosed Taste Modulator Composition on the Appearance Time (AT), Sweetness Linger (SL), Body/Mouthfeel (B/MF) and Sweetness Desensitization (SD) of REBA in Citric Acid Buffer.

[4] = cited from earlier work; for Kd, apparent Sweetener/Receptor dissociation constant / Rm, Maximal Response: from R = Rm x C/(kd + C)
[5] = cited from earlier work; for sweetness potency: relative to sucrose; for sweetness potency (sensory evaluations): more potent than sucrose, Crammer and Ikan 1986
human taste testers [6] = experiment: Sensory Testing Methodology: Sweetness Linger of reference standards in water; type: in vivo; details: 10% Sucrose and 500 PPM REBA, perceived sweetness intensity @ 120 sec
From the text: In various aspects, the present disclosure pertains to methods of testing the disclosed sweetener compositions, e.g., a sensory methodology or method for sweetener evaluation. In a particular aspect, the sensory methodology used is known as a “Flavor Profile Analysis” as has been previously described (see: B. T. Carr, S. D. Pecore, K. M. Gibes and G. E. DuBois, “Sensory Methods for Sweetener Evaluation”, Chapter 11 In Flavor Measurement, C. T. Ho and C. H. Manley, Eds., Marcel Dekker, New York, N.Y., 1993). The full set of sensory parameters that are assessed in the sensory testing method are: (a) Sweetness Intensity (which can be abbreviated in tables herein as “S”); (b) Sourness Intensity ((which can be abbreviated in tables herein as “So”); (c) Saltiness Intensity (which can be abbreviated in tables herein as “Sa”); (d) Bitterness Intensity (which can be abbreviated in tables herein as “B”); (e) Body/Mouthfeel Intensity (which can be abbreviated in tables herein as “B/MF”); (f) Astringency Intensity (which can be abbreviated in tables herein as “A”); (g) Sweetness Linger (which can be abbreviated in tables herein as “SL”); (h) Sweetness Appearance Time (which can be abbreviated in tables herein as “AT”); and (i) Sweetness Desensitization (which can be abbreviated in tables herein as “SD”). […]

[7] = Concentration/Response (C/R) function of sweeteners; type: in vivo
From the text: In discussion of mid-calorie beverages, it is useful to describe a suitable methodology for definition of the compositions of such caloric/non-caloric sweetener blends. One such system is a previously described Concentration/Response (C/R) function useful for many caloric as well as non-caloric sweeteners (see G. E. DuBois, et al., “A Systematic Study of Concentration-Response Relationships of Sweeteners”, In Sweeteners: Discovery, Molecular Design and Chemoreception, D E Walters, F Orthoefer and G E DuBois, Eds., ACS Symposium Series 450, ACS Books, Washington, D.C., 1990).
The following example serves to show how the C/R function can be utilized in design of a mid-caloric beverage. Assume that the objective is to formulate a 50% calorie-reduced beverage with a blend of sucrose and REBA, where the original full-calorie beverage contained 10.0% sucrose. Assuming there is no synergy between sucrose and REBA, such a blend would require 5.0% sucrose and a concentration of REBA equivalent to 5.0% sucrose in sweetness. The requisite concentration (C) of REBA is easily calculated from its C/R function R=10C/(200+C) as follows: 5.0=10×C/(200+C); and C=200 mg/L.

[8] = Dissolution of solid REBD in CAB-K buffer, visual inspection; type: physicochemical; details: 500 PPM in pH 3.1 CAB-K; after standing overnight (about 20 h)

[Cl-].[K+] [K^+, Potassium Chloride]
effect on the AT, SL, B/MF and SD of REBA (human taste testers [1]): did not significantly affect
effect on the AT, SL, B/MF and SD of REBA (human taste testers [2]): do affect
effect on the AT, SL, B/MF and SD of REBA (human taste testers [3]): modestly affected

CC1=CC(=O)[N-]S(=O)(=O)O1.[K+] [Acesulfame-K]
Kd, apparent Sweetener/Receptor dissociation constant [4]: 470 mg/L
Rm, Maximal Response [4]: 11.6 Sucrose Equivalents of Sweetness

Rebaudioside C
sweetness potency [5]: 40-60 times

[Cl-].[Cl-].[Mg+2] [Mg^2+, Magnesium Chloride]
effect on the AT, SL, B/MF and SD of REBA (human taste testers [1]): did not significantly affect
effect on the AT, SL, B/MF and SD of REBA (human taste testers [2]): do affect
effect on the AT, SL, B/MF and SD of REBA (human taste testers [3]): modestly affected

[Ca+2].[Cl-].[Cl-] [Ca^2+, Calcium Chloride]
effect on the AT, SL, B/MF and SD of REBA (human taste testers [1]): did not significantly affect
effect on the AT, SL, B/MF and SD of REBA (human taste testers [2]): do affect
effect on the AT, SL, B/MF and SD of REBA (human taste testers [3]): modestly affected

C=C1C[C@@]23CC[C@H]4[C@@](C)(CCC[C@@]4(C)C(=O)O[C@@H]4O[C@H](CO)[C@@H](O)[C@H](O)[C@H]4O)[C@@H]2CC[C@]1(O[C@@H]1O[C@H](CO)[C@@H](O)[C@H](O)[C@H]1O[C@@H]1O[C@H](CO)[C@@H](O)[C@H](O)[C@H]1O)C3 [Stevioside]
sweetness potency [5]: 110-270 times

C=C1C[C@@]23CC[C@H]4[C@@](C)(CCC[C@@]4(C)C(=O)O[C@@H]4O[C@H](CO)[C@@H](O)[C@H](O)[C@H]4O)[C@@H]2CC[C@]1(O[C@@H]1O[C@H](CO)[C@@H](O)[C@H](O[C@@H]2O[C@H](CO)[C@@H](O)[C@H](O)[C@H]2O)[C@H]1O[C@@H]1O[C@H](CO)[C@@H](O)[C@H](O)[C@H]1O)C3 [Rebaudioside A]
Kd, apparent Sweetener/Receptor dissociation constant [4]: 200 mg/L
Rm, Maximal Response [4]: 10 Sucrose Equivalents of Sweetness
SL (Sweetness Linger) (human taste testers [6]): 5
sweetness potency (sensory evaluations) [5]: 350-450 times
sweetness intensity equivalent ([7]; 500 mg/L REBA, from C/R function R=10.0C/(200+C)): 7.14 % sucrose
requisite concentration (C) equivalent to 5.0% sucrose in sweetness ([7]; calculated from C/R function R=10C/(200+C)): 200 mg/L

C=C1C[C@@]23CC[C@H]4[C@@](C)(CCC[C@@]4(C)C(=O)O[C@@H]4O[C@H](CO)[C@@H](O)[C@H](O)[C@H]4O[C@@H]4O[C@H](CO)[C@@H](O)[C@H](O)[C@H]4O)[C@@H]2CC[C@]1(O[C@@H]1O[C@H](CO)[C@@H](O)[C@H](O[C@@H]2O[C@H](CO)[C@@H](O)[C@H](O)[C@H]2O)[C@H]1O[C@@H]1O[C@H](CO)[C@@H](O)[C@H](O)[C@H]1O)C3 [Rebaudioside D]
appearance of solution [8]: still cloudy

OC[C@H]1O[C@@](CO)(O[C@H]2O[C@H](CO)[C@@H](O)[C@H](O)[C@H]2O)[C@@H](O)[C@@H]1O [Sucrose, reference compound]
C/R Function ([4]; R in Sucrose Equivalents of Sweetness, C in % (w/v) for sugars, in mg/L for HP sweeteners): R = C

COC(=O)[C@H](Cc1ccccc1)NC(=O)[C@@H](N)CC(=O)O [Aspartame] (H-Asp-Phe-OMe)
Kd, apparent Sweetener/Receptor dissociation constant [4]: 560 mg/L
Rm, Maximal Response [4]: 16.0 Sucrose Equivalents of Sweetness

C=C1C[C@@]23CC[C@H]4[C@@](C)(CCC[C@@]4(C)C(=O)O[C@@H]4O[C@H](CO)[C@@H](O)[C@H](O)[C@H]4O)[C@@H]2CC[C@]1(O[C@@H]1O[C@H](CO)[C@@H](O)[C@H](O)[C@H]1O[C@@H]1O[C@@H](C)[C@H](O)[C@@H](O)[C@H]1O)C3 [Dulcoside A]
sweetness potency [5]: 30 times

C[C@H](CC[C@@H](O[C@@H]1O[C@H](CO[C@@H]2O[C@H](CO)[C@@H](O)[C@H](O)[C@H]2O)[C@@H](O)[C@H](O)[C@H]1O[C@@H]1O[C@H](CO)[C@@H](O)[C@H](O)[C@H]1O)C(C)(C)O)[C@H]1CC[C@@]2(C)[C@@H]3CC=C4[C@@H](CC[C@H](O[C@@H]5O[C@H](CO[C@@H]6O[C@H](CO)[C@@H](O)[C@H](O)[C@H]6O)[C@@H](O)[C@H](O)[C@H]5O)C4(C)C)[C@]3(C)[C@H](O)C[C@]12C [mogroside V, mogro-3-O-[β-D-glucopyranosyl (1-6)-β-D-glucopyranoside]-24-O-{[β-D-glucopyranosyl(1-2)]-[?-D-glucopyranosyl(1-6)]-β-D-gluco-pyranoside}]
sweetness ([5]; times cane sugar on a weight basis, estimated): approximately 250 times

Rebaudioside B
sweetness potency (sensory evaluations) [5]: 300-350 times
